Earlier results in patent US20150313913A1, “POSITIVE ALLOSTERIC MODULATORS OF THE GABA-A RECEPTOR IN THE TREATMENT OF AUTISM” (UNIVERSITY OF WASHINGTON THROUGH ITS CENTER FOR …, priority 2013, published 2015).
Read-outs that look alike come from different tables or passages of the source.

Legend:
[1] = cited from earlier work; for Dose in humans for anti-anxiety, anti-convulsive, or sedative effects (dose range, typical or average dose): Table 1, values not marked *; for Dose in humans for anti-anxiety, anti-convulsive, or sedative effects, per day: Table 1, typical daily dose
GABA-A receptor = conditions: cited from earlier work; for Effect at GABA-A receptor: Table 1, exemplary benzodiazepines
[2] = Table 4, exemplary non-BDZ GABA-A enhancers

CN(C(=O)CNC(=O)[C@@H](N)CCCCN)c1ccc(Cl)cc1C(=O)c1ccccc1 [Avizafone]
Dose in humans for anti-anxiety, anti-convulsive, or sedative effects ([1]; Table 1): 3.5 mg/kg | Effect at GABA-A receptor (GABA-A receptor): Full agonist

CCN(CC)CCN1C(=O)CN=C(c2ccccc2F)c2cc(Cl)ccc21 [Flurazepam]
Dose in humans for anti-anxiety, anti-convulsive, or sedative effects: equivalent dose to 10 mg diazepam ([1]; Table 1, values marked *): 15 to 30 mg | Effect at GABA-A receptor (GABA-A receptor): Partial agonist

Cc1c2c(cn1C)NC(=O)CN=C2c1ccccc1 [Premazepam]
Dose in humans for anti-anxiety, anti-convulsive, or sedative effects: equivalent dose to 10 mg diazepam ([1]; Table 1, values marked *): 15 mg | Effect at GABA-A receptor (GABA-A receptor): Partial agonist

Cc1nnc2n1-c1ccc(Cl)cc1C(c1ccccc1)=NC2 [Alprazolam]
Dose in humans for anti-anxiety, anti-convulsive, or sedative effects (dose range, typical or average dose) [1]: dose range of 0.5 to 3.0 mg | Effect at GABA-A receptor (GABA-A receptor): Full agonist

N#CCCN1C(=O)C(O)N=C(c2ccccc2F)c2cc(Cl)ccc21 (centres unmarked) [Cinolazepam]
Dose in humans for anti-anxiety, anti-convulsive, or sedative effects: equivalent dose to 10 mg diazepam ([1]; Table 1, values marked *): 40 mg | Effect at GABA-A receptor (GABA-A receptor): Agonist

O=C1CN=C(c2ccccc2Cl)c2cc(Cl)ccc2N1 [Delorazepam]
Dose in humans for anti-anxiety, anti-convulsive, or sedative effects: equivalent dose to 10 mg diazepam ([1]; Table 1, values marked *): 1 mg | Effect at GABA-A receptor (GABA-A receptor): Agonist

CN1C(=O)CN=C(C2=CCCCC2)c2cc(Cl)ccc21 [Tetrazepam]
Dose in humans for anti-anxiety, anti-convulsive, or sedative effects, per day [1]: 50 to 300 mg/day | Dose in humans for anti-anxiety, anti-convulsive, or sedative effects: equivalent dose to 10 mg diazepam ([1]; Table 1, values marked *): 100 mg | Effect at GABA-A receptor (GABA-A receptor): Agonist

O=C(O)C1N=C(c2ccccc2)c2cc(Cl)ccc2NC1=O (centres unmarked) [Clorazepate]
Dose in humans for anti-anxiety, anti-convulsive, or sedative effects, per day [1]: 15 to 60 mg/day | Dose in humans for anti-anxiety, anti-convulsive, or sedative effects: equivalent dose to 10 mg diazepam ([1]; Table 1, values marked *): 15 mg | Effect at GABA-A receptor (GABA-A receptor): Partial Agonist (Prodrug)

CNC1=Nc2ccc(Cl)cc2C(c2ccccc2)=[N+]([O-])C1 [Chlordiazepoxide]
Dose in humans for anti-anxiety, anti-convulsive, or sedative effects: equivalent dose to 10 mg diazepam ([1]; Table 1, values marked *): 25 mg | Effect at GABA-A receptor (GABA-A receptor): Agonist Long- acting

CC1=CC(=O)N2CC(=O)N(C)c3ccc(Cl)cc3C2(c2ccccc2)O1 (centres unmarked) [Ketazolam]
Dose in humans for anti-anxiety, anti-convulsive, or sedative effects: equivalent dose to 10 mg diazepam ([1]; Table 1, values marked *): 15 to 30 mg | Effect at GABA-A receptor (GABA-A receptor): Agonist

O=C1CN=C(c2ccccc2Cl)c2cc(Br)ccc2N1 [Phenazepam]
Dose in humans for anti-anxiety, anti-convulsive, or sedative effects: equivalent dose to 10 mg diazepam ([1]; Table 1, values marked *): 1 mg | Dose in humans for anti-anxiety, anti-convulsive, or sedative effects (dose range, typical or average dose) [1]: 0.5 mg | Effect at GABA-A receptor (GABA-A receptor): Agonist

CN1CCN(C(=O)O[C@H]2c3nccnc3C(=O)N2c2ccc(Cl)cn2)CC1 [Eszopiclone]
Dose in humans for anti-anxiety, anti-convulsive, or sedative effects: equivalent dose to 10 mg diazepam ([1]; Table 4, values marked *): 3 mg | Effect at GABA receptor (GABA-A receptor; [2]): Agonist

CN1C(=O)CN=C(c2ccccc2)c2cc(Cl)ccc21 [Diazepam]
dose typically administered to achieve an anxiolytic or anti-convulsive effect ([1]; 2-4 times daily): 2 to 10 mg | Dose in humans for anti-anxiety, anti-convulsive, or sedative effects: equivalent dose to 10 mg diazepam ([1]; Table 1, values marked *): 10 mg | Effect at GABA-A receptor (GABA-A receptor): Agonist Long- acting

Cc1nnc2n1-c1ccc(Br)cc1C(c1ccccn1)=NC2 [Pyrazolam]
Dose in humans for anti-anxiety, anti-convulsive, or sedative effects: equivalent dose to 10 mg diazepam ([1]; Table 1, values marked *): 1 mg | Effect at GABA-A receptor (GABA-A receptor): Agonist

O=C1CN=C(c2ccccc2)c2cc(Cl)ccc2N1 [Nordazepam]
Dose in humans for anti-anxiety, anti-convulsive, or sedative effects: equivalent dose to 10 mg diazepam ([1]; Table 1, values marked *): 10 mg | Effect at GABA-A receptor (GABA-A receptor): Partial agonist

C#CCN1C(=O)CN=C(c2ccccc2)c2cc(Cl)ccc21 [Pinazepam]
Dose in humans for anti-anxiety, anti-convulsive, or sedative effects: equivalent dose to 10 mg diazepam ([1]; Table 1, values marked *): 20 mg | Effect at GABA-A receptor (GABA-A receptor): Agonist

O=C1CN=C(c2ccccc2F)c2cc(Cl)ccc2N1CC1CC1 [Flutoprazepam]
Dose in humans for anti-anxiety, anti-convulsive, or sedative effects: equivalent dose to 10 mg diazepam ([1]; Table 1, values marked *): 2 to 3 mg | Effect at GABA-A receptor (GABA-A receptor): Agonist

O=C1Nc2ccc(Cl)cc2C(c2ccccc2Cl)=NC1O (centres unmarked) [Lorazepam]
Dose in humans for anti-anxiety, anti-convulsive, or sedative effects: equivalent dose to 10 mg diazepam ([1]; Table 1, values marked *): 1 mg | Effect at GABA-A receptor (GABA-A receptor): Agonist High- potency

Cc1nnc2n1-c1sc(Br)cc1C(c1ccccc1Cl)=NC2 [Brotizolam]
Dose in humans, sedative ([1]; Table 1, Sedative): 0.125 to 25 mg | Dose in humans, anti-anxiety ([1]; Table 1, anti-anxiety): 80 to 100 mg | Dose in humans for anti-anxiety, anti-convulsive, or sedative effects: equivalent dose to 10 mg diazepam ([1]; Table 1, values marked *): 0.25 mg | Effect at GABA-A receptor (GABA-A receptor): Agonist

O=C1Nc2ccc(Cl)cc2C(c2ccccc2)=NC1O (centres unmarked) [Oxazepam]
Dose in humans, mild/moderate anxiety ([1]; Table 1, 1 to 2 times daily): 10 to 15 mg | Dose in humans, severe anxiety ([1]; Table 1, 3 to 4 times daily): 15 to 30 mg | Dose in humans, symptoms related to alcohol withdrawal ([1]; Table 1, 3 to 4 times daily): 15 to 30 mg | Dose in humans for anti-anxiety, anti-convulsive, or sedative effects: equivalent dose to 10 mg diazepam ([1]; Table 1, values marked *): 20 mg | Effect at GABA-A receptor (GABA-A receptor): Agonist Short- acting

CN1CCN=C(c2ccccc2)c2cc(Cl)ccc21 [Medazepam]
Dose in humans for anti-anxiety, anti-convulsive, or sedative effects: equivalent dose to 10 mg diazepam ([1]; Table 1, values marked *): 10 mg | Effect at GABA-A receptor (GABA-A receptor): Agonist Long- acting

O=C1CN=C(c2ccccc2)c2cc([N+](=O)[O-])ccc2N1 [Nitrazepam]
Dose in humans for anti-anxiety, anti-convulsive, or sedative effects: equivalent dose to 10 mg diazepam ([1]; Table 1, values marked *): 10 mg | Effect at GABA-A receptor (GABA-A receptor): Full agonist Long- acting

CN1CCN(/C=C2\N=C3CN=C(c4ccccc4Cl)c4cc([N+](=O)[O-])ccc4N3C2=O)CC1 [Loprazolam]
Dose in humans for anti-anxiety, anti-convulsive, or sedative effects: equivalent dose to 10 mg diazepam ([1]; Table 1, values marked *): 2 mg | Dose in humans for anti-anxiety, anti-convulsive, or sedative effects (dose range, typical or average dose) [1]: 1 to 2 mg | Effect at GABA-A receptor (GABA-A receptor): Agonist

CCN(C(C)=O)c1cccc(-c2ccnc3c(C#N)cnn23)c1 [Zaleplon]
Dose in humans for anti-anxiety, anti-convulsive, or sedative effects (marked *) ([1]; Table 2): 20 mg | Effect at GABA receptor (GABA-A receptor; Table 2, exemplary SS-PAMs): Full agonist α1 selective Acts on α2,3 at higher doses Ultra short- acting

O=C1CN=C(c2ccccn2)c2cc(Br)ccc2N1 [Bromazepam]
Dose in humans for anti-anxiety, anti-convulsive, or sedative effects: equivalent dose to 10 mg diazepam ([1]; Table 1, values marked *): 5 to 6 mg | Effect at GABA-A receptor (GABA-A receptor): Agonist

CCc1cc2c(s1)N(C)C(=O)CN=C2c1ccccc1Cl [Clotiazepam]
Dose in humans for anti-anxiety, anti-convulsive, or sedative effects: equivalent dose to 10 mg diazepam ([1]; Table 1, values marked *): 5 to 10 mg | Effect at GABA-A receptor (GABA-A receptor): Full agonist

CN1C(=O)C(O)N=C(c2ccccc2)c2cc(Cl)ccc21 (centres unmarked) [Temazepam]
Dose in humans for anti-anxiety, anti-convulsive, or sedative effects: equivalent dose to 10 mg diazepam ([1]; Table 1, values marked *): 20 mg | Effect at GABA-A receptor (GABA-A receptor): Agonist

CN1C(=O)CN=C(c2ccccc2)c2cc([N+](=O)[O-])ccc21 [Nimetazepam]
Dose in humans for anti-anxiety, anti-convulsive, or sedative effects: equivalent dose to 10 mg diazepam ([1]; Table 1, values marked *): 5 mg | Effect at GABA-A receptor (GABA-A receptor): Agonist

O=C1CN2CCOC2(c2ccccc2Cl)c2cc(Cl)ccc2N1 (centres unmarked) [Cloxazolam]
Dose in humans for anti-anxiety, anti-convulsive, or sedative effects: equivalent dose to 10 mg diazepam ([1]; Table 1, values marked *): 1 mg | Effect at GABA-A receptor (GABA-A receptor): Agonist (Prodrug)

CN1CCN(C(=O)OC2c3nccnc3C(=O)N2c2ccc(Cl)cn2)CC1 (centres unmarked) [Zopiclone]
Dose in humans for anti-anxiety, anti-convulsive, or sedative effects: equivalent dose to 10 mg diazepam ([1]; Table 4, values marked *): 15 mg | Effect at GABA receptor (GABA-A receptor; [2]): Full agonist

O=C1CN=C(c2ccccc2)c2cc(Cl)ccc2N1CC(F)(F)F [Halazepam]
Dose in humans for anti-anxiety, anti-convulsive, or sedative effects: equivalent dose to 10 mg diazepam ([1]; Table 1, values marked *): 20 to 40 mg | Effect at GABA-A receptor (GABA-A receptor): Agonist

CN1C(=O)C(O)N=C(c2ccccc2Cl)c2cc(Cl)ccc21 (centres unmarked) [Lormetazepam]
Dose in humans for anti-anxiety, anti-convulsive, or sedative effects: equivalent dose to 10 mg diazepam ([1]; Table 1, values marked *): 1.5 mg | Effect at GABA-A receptor (GABA-A receptor): Agonist Short- acting

CCc1cc2c(s1)-n1c(C)nnc1CN=C2c1ccccc1Cl [Etizolam]
Dose in humans for anti-anxiety, anti-convulsive, or sedative effects: equivalent dose to 10 mg diazepam ([1]; Table 1, values marked *): 0.5 to 1 mg | Effect at GABA-A receptor (GABA-A receptor): Full agonist

Cc1ncc2n1-c1ccc(Cl)cc1C(c1ccccc1F)=NC2 [Midazolam]
Dose in humans for anti-anxiety, anti-convulsive, or sedative effects: equivalent dose to 10 mg diazepam ([1]; Table 1, values marked *): 7.5 mg | Effect at GABA-A receptor (GABA-A receptor): Agonist Short- acting

CP(C)(=O)CN1C(=O)CN=C(c2ccccc2)c2cc(Cl)ccc21 [Fosazepam]
Dose in humans for anti-anxiety, anti-convulsive, or sedative effects: equivalent dose to 10 mg diazepam ([1]; Table 1, values marked *): 60 mg | Effect at GABA-A receptor (GABA-A receptor): Agonist Low potency

Clc1ccc2c(c1)C(c1ccccc1)=NCc1nncn1-2 [Estazolam]
Dose in humans for anti-anxiety, anti-convulsive, or sedative effects: equivalent dose to 10 mg diazepam ([1]; Table 1, values marked *): 2 mg | Effect at GABA-A receptor (GABA-A receptor): Agonist

CN1C(=O)CN=C(c2ccccc2F)c2cc([N+](=O)[O-])ccc21 [Flunitrazepam]
Dose in humans for anti-anxiety, anti-convulsive, or sedative effects: equivalent dose to 10 mg diazepam ([1]; Table 1, values marked *): 1 mg | Effect at GABA-A receptor (GABA-A receptor): Agonist

O=C1CN=C(c2ccccc2)c2cc(Cl)ccc2N1CC1CC1 [Prazepam]
Dose in humans for anti-anxiety, anti-convulsive, or sedative effects: equivalent dose to 10 mg diazepam ([1]; Table 1, values marked *): 20 mg | Effect at GABA-A receptor (GABA-A receptor): Agonist (Prodrug)

CCOC(=O)C1N=C(c2ccccc2F)c2cc(Cl)ccc2NC1=O (centres unmarked) [Ethyl loflazepate]
Dose in humans for anti-anxiety, anti-convulsive, or sedative effects: equivalent dose to 10 mg diazepam ([1]; Table 1, values marked *): 2 mg | Effect at GABA-A receptor (GABA-A receptor): Agonist (Prodrug)

CCC1C(C)=NN=C(c2ccc(OC)c(OC)c2)c2cc(OC)c(OC)cc21 (centres unmarked) [Tofisopam]
Dose in humans for anti-anxiety, anti-convulsive, or sedative effects, per day [1]: Typical dose 50- 300 mg/day in divided doses | Effect at GABA-A receptor (GABA-A receptor): Agonist

CC(C)(C)OC(=O)c1ncn2c1[C@@H]1CCCN1C(=O)c1c(Br)cccc1-2 [Bretazenil]
Dose in humans for anti-anxiety, anti-convulsive, or sedative effects: equivalent dose to 10 mg diazepam ([1]; Table 1, values marked *): 0.5 mg | Effect at GABA-A receptor (GABA-A receptor): Partial Agonist High potency
